The SangsterLogP compilation

Row | logP | SMILES
1 | 4.48 | Oc1ccccc1C=Cc1ccc2ccccc2n1
2 | 4.18 | Oc1cccc(C=Cc2ccc3cccc(O)c3n2)c1
3 | 5.69 | Clc1ccccc1C=Cc1ccc2cccc(Cl)c2n1
4 | 6.49 | Oc1c(Cl)cc(Cl)c2ccc(C=Cc3ccccc3Cl)nc12
5 | 3.67 | Oc1ccc(C=Cc2ccc3cccc(O)c3n2)c(O)c1
6 | 5.55 | Oc1ccc(C=Cc2ccc3c(Cl)cc(Cl)c(O)c3n2)cc1O
7 | 9.69 | Oc1c(Cl)cc(Cl)c2ccc(C=Cc3ccc(C=Cc4ccc5c(Cl)cc(Cl)c(O)c5n4)cc3)nc12
8 | 5.35 | Oc1ccccc1C=Cc1ccc2c(Cl)cc(Cl)c(O)c2n1
9 | 5.44 | Oc1cc(O)cc(C=Cc2ccc3c(Cl)cc(Cl)c(O)c3n2)c1
10 | 6.25 | CCOc1ccc(C=Cc2ccc3c(Cl)cc(Cl)c(O)c3n2)cc1
11 | 5.72 | Oc1ccc(C=Cc2ccc3c(Cl)cc(Cl)c(O)c3n2)cc1
12 | 4.99 | Oc1cccc2ccc(C=Cc3ccccc3Cl)nc12
13 | 4.75 | CCOc1ccc(C=Cc2ccc3cccc(O)c3n2)cc1
14 | 6.28 | CCOc1ccccc1C=Cc1ccc2c(Cl)cc(Cl)c(O)c2n1
15 | 4.8 | CCOc1ccccc1C=Cc1ccc2cccc(O)c2n1
16 | 5.17 | Oc1ccc(C=Cc2ccc3c(Cl)cc(Cl)c(O)c3n2)c(O)c1
